According to patent US8841422B2, “Human androgen receptor alternative splice variants” (University of Maryland, Baltimore, priority 2008, dated 2014):

Tests used:
80 kD ARs = assay: Western blot with anti-AR after AR shRNAs in CWR-R1 cells; format: cell-based, human; conditions: 48 hr post infection
From the text: FIGS. 1A-H: Cloning of novel alternative splice AR isoforms. (A) Presence of the short forms of AR in prostate cancer cells. Total cell lysates of different prostate cancer cells were blotted with anti-AR (441) antibody (upper) and anti-Actin antibody (lower). (B) Selective knockdown of AR long/short forms by AR shRNAs. CWR-R1 cells were infected with the lentivirus encoding AR shRNAa, AR shRNAb, and AR shRNAc (shARa, shARb and shARc) targeting different exons of AR as indicated in (D). At 48 hr post infection, the total cell lysates were subjected to western blot with anti-AR antibody. The same blot was stained with Coomassie Blue to show the protein loading (right panel). (C) Presence of AR isoform transcripts in CWR-R1 cells. Total RNA was isolated from CWR-R1 cells and reverse transcribed. The primer derived from AR shRNAc sequence was used to perform a rapid amplification of cDNA 3′-end (3′-RACE) with the RACE oligo-dT primer or a control primer. (D) Schematic structure of the human AR splice variants. The hatched cassettes stand for the cryptic exons. Solid thick lines represent the transcribed sequences. (E) Expression of AR isoforms in prostate cancer cells. The relative expression levels of AR, AR3, AR4 and AR5 were quantified using real-time PCR with the isoform specific primer pair sets described in Methods (left panel). The AR level in LNCaP cells was arbitrarily set as 1. The expression levels of AR3 in LNCaP and C-8 1 cells were further plotted with a higher resolution. *p<0.05 (right panel). (F) Transcriptional activity of AR isoforms. COS-1 cells were transfected with ARR.2-luciferase reporter gene together with AR, AR3, AR4 and AR5 expression vector. At 24 hr posttransfection, the cells were lysed and the luciferase activity was measured. The data were expressed as relative promoter activity, the changes of luciferase activity relative to the untreated control (arbitrarily set as 1). (G) COS-1 cells were transfected with ARR2-Luciferase reporter along with increasing doses of AR3 or AR expressing vector. […]

AR = format: cell-based, human; conditions: LNCaP cells
From the text: (H) LNCaP cells were infected with (+) or without (−) the lentivirus encoding AR shRNA (shAR) as described previously. At 6 hr postinfection, the cells were transfected with ARR2-Luciferase reporter along with AR3 or the codon-switched wild-type AR expressing vector (ARcs).
Briefly, cells grown in 24-well plates were transiently transfected with different plasmid constructs using LipofectAM1NE 2000 (Invitrogen) for LNCaP cells and FuGENE HI) (Roche) for COS-1 cells following the manufacturer's instruction. […] Dual-Luciferase assays were performed according to the protocol from the manufacturer (Promega).

CWR-R1 xenograft = assay: In vivo tumor growth in xenograft model, castrated male nude mice; conditions: CWR-R1 cells infected 48 hr before s.c. injection
Method: (§1) FIGS. 4A-D: AR3 promotes androgen-independent growth of prostate cancer cells. LNCaP cells were infected with lentivirus encoding AR3 expression construct (AR3) or the control vector. After 2-week culture in androgen-depleted condition, the cells were visualized by Coomassie Blue staining (A). At 48 hr post infection, the cells were injected into the castrated SCID mice and the growth of the tumor cells were monitored weekly. The result represent the mean tumor volume±SE (n=5 mice/group), *p<0.05 Inset, Western blots of anti-AR3 and anti-AR of the LNCaP xenograft tumor lysates (B). CWR-R1 and 22Rv1 cells were infected with lentivirus encoding AR3 shRNA-1 (shAR3) or control shRNA (shCon). After 2 weeks culture in androgen-depleted condition, the cells were visualized by Coomassie Blue staining (C). At 48 hr postinfection, the cells were injected into the castrated male nude mice. The growth of the tumors was monitored weekly. The result represents the mean tumor volume±SE (n=5 mice/group), *p<0.05 (D). […]
(§2) In vitro cell growth assay and In vivo tumor growth in xenograft models LNCaP, CWR-R1 and 22Rv1 cells were infected with the lentiviruses bearing the shRNA sequences and the AR3 expression constructs as indicated. […] The volumes of the tumors formed on both sides were measured weekly and calculated by using the formula: 0.5236×r1^2×r2 (r1<r2). […]

22Rv1 xenograft = assay: as above; conditions: 22Rv1 cells infected 48 hr before s.c. injection
Method: as §1, §2

22Rv1 cells = assay: In vitro cell growth assay in androgen-depleted condition; format: cell-based, human; conditions: 22Rv1, 2 weeks culture, Coomassie Blue staining
Method: as §1, §2

CWR-R1 cells = assay: as above; format: cell-based, human; conditions: CWR-R1, 2 weeks culture, Coomassie Blue staining
Method: as §1, §2

Row | Molecule | knock-down of 80 kD ARs (80 kD ARs) | activity of endogenous AR or codon-switched wild-type AR (luciferase reporter) (AR) | further results
1 | shARb: shRNA specific for human AR gene, lentiviral pLKO.1-puro vector from Sigma, targeting Exon 5, SEQ ID NO: 11 (CCGGCACCAATGTCAACTCCAGGATCTCGAGATCCTGGAGTTGACATTGGTGTTTTT) | barely affected |  | 
2 | shARa: shRNA specific for human AR gene, lentiviral pLKO.1-puro vector from Sigma, targeting Exon 8, SEQ ID NO: 10 (CCGGCCTGCTAATCAAGTCACACATCTCGAGATGTGTGACTTGATTAGCAGGTTTTT) | barely affected |  | 
3 | shARc: shRNA specific for human AR gene, lentiviral pLKO.1-puro vector from Sigma, targeting the 1st Exon, SEQ ID NO: 12 (CCGGCGCGACTACTACAACTTTCCACTCGAGTGGAAAGTTGTAGTAGTCGCGUTTT) | efficiently knocked down |  | 
4 | CC(O)(CS(=O)(=O)c1ccc(F)cc1)C(=O)Nc1ccc(C#N)c(C(F)(F)F)c1 (stereo not drawn) [casodex] |  | blocked | 
5 | C[C@]12CCC(=O)C[C@@H]1CC[C@@H]1[C@@H]2CC[C@]2(C)[C@@H](O)CC[C@@H]12 [DHT] |  | induced | 
6 | shAR3-1: lentivirus encoded shRNA specific for AR3 isoform, made using SEQ ID NOS: 13 and 14 (nucleic acid) chain 1: TGTAATAGTGGTTACCACTCTTCAAGAGAGAGTGGTAACCACTATTACTTTTTTTTC chain 2: TCGAGAAAAAAAAGTAATAGTGGTTACCACTCTCTCTTGAAGAGTGGTAACCACTATTACA |  |  | tumor growth in castrated nude mice (CWR-R1 xenograft): attenuated their growth; tumor growth in castrated nude mice (22Rv1 xenograft): attenuated their growth; cell growth in androgen-depleted medium (22Rv1 cells): attenuated their growth; cell growth in androgen-depleted medium (CWR-R1 cells): attenuated their growth
